# From publication PMC7269146, “Jingzhaotoxin-X, a gating modifier of Kv4.2 and Kv4.3 potassium channels purified from the venom of the Chinese tarantula Chilobrachys jingzhao” (The Journal of Venomous Animals and Toxins Including …, 2020)
# Like-named read-outs stand apart in the source and are kept apart here. Where a SMILES comes first, the peptide text is derived from it. Bridges are numbered along the chain shown (N, C = ends).
# Target: T1, Kv4.2 (Rattus norvegicus, UniProt Q63881)
# T1 construct: expressed in transfected cells; host or cells: HEK293t
# T1 sequence (Q63881 1-630): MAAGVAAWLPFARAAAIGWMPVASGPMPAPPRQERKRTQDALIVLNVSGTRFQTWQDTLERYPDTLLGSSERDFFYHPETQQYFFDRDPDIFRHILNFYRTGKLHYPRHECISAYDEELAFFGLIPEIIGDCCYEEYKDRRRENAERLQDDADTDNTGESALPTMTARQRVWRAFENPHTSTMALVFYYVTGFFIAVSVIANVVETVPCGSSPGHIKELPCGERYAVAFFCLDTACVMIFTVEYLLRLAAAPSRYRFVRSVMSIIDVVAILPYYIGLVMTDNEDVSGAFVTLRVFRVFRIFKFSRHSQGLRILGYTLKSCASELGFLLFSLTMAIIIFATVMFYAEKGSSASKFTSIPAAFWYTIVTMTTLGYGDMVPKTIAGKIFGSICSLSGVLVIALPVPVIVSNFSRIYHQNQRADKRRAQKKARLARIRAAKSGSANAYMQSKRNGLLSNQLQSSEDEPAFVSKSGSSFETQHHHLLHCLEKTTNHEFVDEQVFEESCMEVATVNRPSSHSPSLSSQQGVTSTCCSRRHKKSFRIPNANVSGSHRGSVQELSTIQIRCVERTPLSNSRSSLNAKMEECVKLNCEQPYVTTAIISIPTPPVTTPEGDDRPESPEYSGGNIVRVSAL
# Assay: triple-pulse protocol, toxin dissociation by strong depolarization, Kv4.2 in HEK 293T cells
# Assay type: cell-based
# Settings: 500 nM; for inhibition at 0.5 µM: HEK-293T
# Source text: Rat cDNA genes encoding Kv4.2 (Accession: NM_031730.2) and Kv4.3 (Accession: AB003587.1) were subcloned to vector pcDNA3.1. In addition, human cDNA genes encoding Nav1.7 (Accession: DQ857292.1) and Nav1.5 (Accession: AB158469.2) were subcloned to vectors pcDNA3.1-mod and pcDNA3.1, separately. Then, Kv4.2, Kv4.3, Nav1.5 and Nav1.7 constructs were transiently transfected into the human embryonic kidney 293t (HEK293t) cells using lipofectamine 2000 (Invitrogen, USA) in accordance with manufacturer protocols. Thereafter, HEK293 cells were inoculated within Dulbecco’s modified Eagle’s medium (DMEM) containing 10% fetal bovine serum (FBS) at 5% CO2 and 37°C. The Kv4.3 channel and the Kv4.2 counterpart were then transfected in the absence of β subunit. Subsequently, cells were incubated with a DNA-lipofectamine mixture (one reporter plasmid for green fluorescence protein and channel constructs) for 4-6 h, and were washed with the fresh medium.
# An EPC-10 patch-clamp amplifier (HEKA, Germany) was employed to record the potassium currents at the configuration of whole-cell patch-clamp under an ambient temperature of 22-25°C. The resistance was 2.0-3.0 MΩ when the recording pipette contained a full volume of internal solution (supplemented with 140 mM KCl, 10 mM HEPES, 2.5 mM MgCl2, 5 mM ATP and 11 mM EGTA). KOH was utilized to adjust the pH to 7.2, while sucrose was employed to adjust the osmolarity to 310 mOsm/L. The culture medium was replaced with an external solution containing 150 mM NaCl, 2.5 mM CaCl2, 10 mM HEPES, 2 mM MgCl2, 5 mM KCl, and 10 mM D-glucose. Similarly, sucrose and NaOH were applied to adjust the osmolarity to 330 mOsm/L and pH to 7.4. […] The series resistance was maintained at about 5 MΩ, with 65-70% compensation. Finally, the leakage currents and linear capacitance were subtracted digitally according to the P/4 protocol.
# Subsequently, we examined whether strong depolarization induced toxin dissociation from potassium channels. To address this question, the triple-pulse protocol was utilized, which used the test pulse of +20 mV after potent depolarization (+130 mV) to measure the available Kv4.2 currents (Fig. 6, inset). […] Furthermore, this toxin also affected the amplitude of outward Kv4.2 currents (46.3 ± 5.6%) by the second pulse (+130 mV). Typically, the amplitude of current acquired was nearly the same as that in controls induced by a third pulse (+20 mV), since the inhibition was only 17.5 ± 3.9% (Fig. 6, n = 7).
# Figure 6. Potent depolarization dissociated the toxin-channel complex. The 300 ms test pulse at the voltage of +20 mV was utilized to induce the current traces. Prior to the application of test pulse, cells held at the voltage of -80 mV depolarized for 500 ms at the conditioning pulse of +130 mV and the holding potential of 50 ms (see inset). Following 500 nM JZTX-X perfusion, the test pulse-elicited current amplitude was nearly identical to the control after the 500 ms conditioning pulse.
smiles,measurement,setting,value
"CC(C)C[C@@H]1NC(=O)[C@H](CCCCN)NC(=O)[C@H](Cc2ccc(O)cc2)NC(=O)[C@@H]2CSSC[C@@H]3NC(=O)[C@H](Cc4ccc(O)cc4)NC(=O)[C@H](Cc4ccccc4)NC(=O)CNC(=O)[C@H](C)NC(=O)[C@H](CSSC[C@H](NC(=O)[C@@H](N)CC(C)C)C(=O)N[C@@H](CO)C(=O)N[C@@H](CCCNC(=N)N)C(=O)N[C@@H](CCC(=O)O)C(=O)NCC(=O)N[C@@H](CCC(=O)O)C(=O)N[C@@H](Cc4ccccc4)C(=O)N2)NC(=O)[C@H](CSSC[C@@H](C(=O)N[C@@H](Cc2ccc(O)cc2)C(=O)N[C@@H](CCCNC(=N)N)C(=O)N[C@@H](CC(N)=O)C(=O)O)NC(=O)[C@H](Cc2c[nH]cn2)NC(=O)[C@H](CC(C)C)NC(=O)[C@H](C(C)C)NC(=O)[C@H](Cc2ccccc2)NC(=O)[C@H](C)NC(=O)[C@H](CCCCN)NC3=O)NC(=O)[C@H](CCCCN)NC(=O)[C@H](CCCNC(=N)N)NC1=O [JZTX-X, Jingzhaotoxin-X] (H-LCSREGEFCYKLRKCCAGFYCKAFVLHCYRN-OH; disulfide 2-16, 9-21, 15-28; N-terminus assumed)","inhibition of Kv4.2 outward current, second pulse (+130 mV)","500 ms conditioning pulse, n = 7, 0.5 µM",~ 46%
same,"inhibition of Kv4.2 current, first pulse (+20 mV)","holding -80 mV, n = 7, 0.5 µM",~ 93%
same,inhibition at 0.5 µM,"500 ms conditioning pulse, n = 7, read-out: inhibition of Kv4.2 outward current, second pulse (+130 mV)",46.3 ± 5.6%
same,inhibition at 0.5 µM,"after +130 mV conditioning pulse, n = 7, read-out: inhibition of Kv4.2 current, third pulse (+20 mV)",17.5 ± 3.9%
same,inhibition at 0.5 µM,"holding -80 mV, n = 7, read-out: inhibition of Kv4.2 current, first pulse (+20 mV)",92.6 ± 3.2%
